Assay results reported in patent publication EP0324212A1, “Glucuronic acid derivatives of opioid antagonists” (BAKER NORTON PHARMACEUTICALS, INC., priority 1988, dated 1989).
“And” between values parts separate entries of the source, which are not always exact repeats. Identical values can stand only once. Counter-ions that a name gives are not always drawn. Marks after values point to notes of the source that are not given here.

Key:
[1] = tested on: morphine-induced hypomotility; experiment: Charcoal meal assay (gastrointestinal motility) of Witkin et al.; type: in vivo, mice; conditions: for effect on percentage of intestine traveled in the absence of morphine: groups 4 and 6, no morphine; for effect on percentage of intestine traveled in the absence of morphine / alleviation of the depressant effect of morphine on intestinal transit: result in words; for alleviation of the depressant effect of morphine on intestinal transit: groups 5 and 7, morphine 10 mg/kg p.o.
Description: To determine whether nalmefene glucuronide would alleviate morphine-induced hypomotility, the charcoal meal assay method of Witkin et al. (J. Pharmacol. Ext. Therep., 133: 400, 1961) was done on 56 mice. […]

[2] = Absorption and intestinal distribution of 14C labelled nalmefene glucuronide after oral administration; type: in vivo; conditions: rats
Description: However the 2-3% of the dose which had reached the cecum by this time was almost exclusively free nalmefene. Therefore the glucuronide of an opioid antagonist provides a means of preventing narcotic-induced intestinal hypomotility without interfering with central nervous system effects of narcotics, such as analgesia.

[3] = tested on: opioid-dependant animals; experiment: Rapid Quantitative In Vivo Assay for Narcotic Antagonist of Katovich et al. (skin tail temperature rise as a CNS withdrawal sign); conditions: Figure 2; injection of 1000 µg/kg
Description: The Rapid Quantitative In Vivo Assay for Narcotic Antagonist of Katovich et al. (Substance and Alcohol Actions/Misuse, vol 5: 87095, 1984) was used. This assay is based on the extreme sensitivity of opioid-dependant animals to narcotic antagonists. Injection of these animals with a narcotic antagonist produces severe central nervous system withdrawal signs. One of these signs is an abrupt rise in the skin temperature of the tail.

[4] = Morphine 10 mg/kg p.o. 30 minutes before drug p.o., 15 mg/kg or 2.9 x 10⁻⁶ M/kg nalmefene glucuronide, 2.9 x 10⁻⁶ M/kg nalmefene HCl, determined 30 min later
[5] = Saline p.o. 30 minutes before drug p.o. (no morphine), 15 mg/kg or 2.9 x 10⁻⁶ M/kg nalmefene glucuronide, 2.9 x 10⁻⁶ M/kg nalmefene HCl, determined 30 min later

| Structure (SMILES) | Percent Meal Traveled ± S.E.M. ([1]; mouse, in vivo) | reduction of the percentage of the intestine traveled ([1]; mouse, in vivo) | Percent Meal Traveled ± S.E.M. [1, 4] | Percent Meal Traveled ± S.E.M. [1, 5] | effect on percentage of intestine traveled in the absence of morphine [1] | alleviation of the depressant effect of morphine on intestinal transit ([1]; listed as nalmefene glucuronide) | alleviation of the depressant effect of morphine on intestinal transit ([1]; listed as nalmefene-3β-D-glucuronide) | alleviation of the depressant effect of morphine on intestinal transit ([1]; listed as nalmefene-β-D-glucuronide) | absorption following oral administration ([2]; doses as high as 40 mg/kg) | dose present in the small intestine still as nalmefene glucuronide ([2]; oral, 2 hours after dosing) | radioactivity in plasma ([2]; oral, 2 hours after dosing) | rise in skin tail temperature [3] | alleviation of the depressant effect of morphine on intestinal transit [1] |
| --- | --- | --- | --- | --- | --- | --- | --- | --- | --- | --- | --- | --- | --- |
| CN1CC[C@]23c4c5ccc(O)c4O[C@H]2[C@@H](O)C=C[C@H]3[C@H]1C5 [Morphine] | 28 ± 2 (N=8)^c Percent and 31 ± 3 (N=8)^c,^g Percent | more than half |  |  |  |  |  |  |  |  |  |  |  |
| C=C1CCC2(O)C3Cc4ccc(OC5OC(C(=O)O)C(O)C(O)C5O)c5c4C2(CCN3CC2CC2)C1O5 [Nalmefene Glucuronide, nalmefene-3β-D-glucuronide] |  |  | 58 ± 12 (N=5)^d,^e,^h,^i Percent | 66 ± 3 (N=8)^d Percent | neither nalmefene (group 6) nor nalmefene glucuronide (group 4) had any significant effect | protected the intestine against the depressant effect of morphine | as effective as nalmefene | as effective as nalmefene | not absorbed to any measurable extent | about 85% | No radioactivity could be detected | had no effect |  |
| C=C1CC[C@@]2(O)[C@H]3Cc4ccc(O)c5c4[C@@]2(CCN3CC2CC2)[C@H]1O5 [Nalmefene HCl, 6-methylene-6-desoxy-N-cyclopropylmethyl-14-hydroxydihydronormorphine] |  |  | 66 ± 14 (N=5)^d,^e,^f Percent | 63 ± 2 (N=8)^c Percent | neither nalmefene (group 6) nor nalmefene glucuronide (group 4) had any significant effect |  |  |  |  |  |  |  | protected the intestine against the depressant effect of morphine |
